Reference: ChEMBL document CHEMBL4619727, “Induced osteoblast differentiation by amide derivatives of stilbene: The possible osteogenic agents” (Bioorg Med Chem Lett, 2020)
Activity calls are given as the source filed them. No cut-off for these calls is given here.

Key:
MCF7 = experiment: Cytotoxicity against human MCF7 cells assessed as cell growth inhibition at 30 ug/ml by MTT assay relative to control; assay type: functional; details: read-out: GI
[1] = molecular target: Estrogen receptor beta (Mus musculus) (UniProt O08537); experiment: Induction of ESR2-mediated osteoblast differentiation in mouse calvarial osteoblast assessed as increase in ALP activity at 1 pM measured after 48 hrs by spectrophotometric analysis; assay type: cell-based
Sequence of Estrogen receptor beta (Mus musculus) (O08537 whole entry): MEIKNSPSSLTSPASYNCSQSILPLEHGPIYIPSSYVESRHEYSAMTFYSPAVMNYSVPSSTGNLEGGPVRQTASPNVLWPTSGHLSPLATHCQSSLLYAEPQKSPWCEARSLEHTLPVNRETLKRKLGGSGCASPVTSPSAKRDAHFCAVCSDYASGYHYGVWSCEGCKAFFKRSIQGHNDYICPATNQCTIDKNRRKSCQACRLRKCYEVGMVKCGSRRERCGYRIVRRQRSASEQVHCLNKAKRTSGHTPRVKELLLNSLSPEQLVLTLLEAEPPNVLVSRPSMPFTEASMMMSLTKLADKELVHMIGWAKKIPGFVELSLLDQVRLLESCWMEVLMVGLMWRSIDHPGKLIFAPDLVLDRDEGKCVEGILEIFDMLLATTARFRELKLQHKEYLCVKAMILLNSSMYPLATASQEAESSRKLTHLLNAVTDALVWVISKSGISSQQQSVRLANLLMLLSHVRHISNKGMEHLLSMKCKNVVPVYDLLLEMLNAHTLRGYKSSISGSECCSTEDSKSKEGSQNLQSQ

Mus musculus [2] = experiment: Anti-osteoporosis activity in ovariectomized BALB/c mouse assessed as increase in trabecular number in femur bone at 1 mg/kg, po via gavage administered for 1 month by microCT imaging analysis; assay type: functional, organism-based
Mus musculus [3] = experiment: Anti-osteoporosis activity in ovariectomized BALB/c mouse assessed as reduction in trabecular spacing in femur bone at 1 mg/kg, po via gavage administered for 1 month by microCT imaging analysis; assay type: functional, organism-based
Mus musculus [4] = experiment: Anti-osteoporosis activity in ovariectomized BALB/c mouse assessed as reduction in trabecular pattern factor in femur bone at 1 mg/kg, po via gavage administered for 1 month by microCT imaging analysis; assay type: functional, organism-based
Mus musculus [5] = experiment: Anti-osteoporosis activity in ovariectomized BALB/c mouse assessed as increase in femur bone volume density at 1 mg/kg, po via gavage administered for 1 month by microCT imaging analysis; assay type: functional, organism-based
Mus musculus [6] = experiment: Anti-osteoporosis activity in ovariectomized BALB/c mouse assessed as increase in trabecular thickness in femur bone at 1 mg/kg, po via gavage administered for 1 month by microCT imaging analysis; assay type: functional, organism-based
Calvarial osteoblast [7] = experiment: Osteo-blastogenic activity in mouse calvarial osteoblast assessed as upregulation of BMP2 mRNA expression at 1 pM to 100 pM measured after 48 hrs by qPCR analysis; assay type: functional, cell-based
Calvarial osteoblast [8] = experiment: Osteo-blastogenic activity in mouse calvarial osteoblast assessed as upregulation of Runx2 mRNA expression at 1 pM to 100 pM measured after 48 hrs by qPCR analysis; assay type: functional, cell-based
Mus musculus [9] = experiment: Anti-osteoporosis activity in ovariectomized BALB/c mouse assessed as reduction in trabecular pattern factor in femur bone at 1 to 5 mg/kg, po via gavage administered for 1 month by microCT imaging analysis; assay type: functional, organism-based
Mus musculus [10] = experiment: Anti-osteoporosis activity in ovariectomized BALB/c mouse assessed as increase in femur bone volume density at 1 to 5 mg/kg, po via gavage administered for 1 month by microCT imaging analysis; assay type: functional, organism-based
[11] = system: Peritoneal macrophage cell; experiment: Cytotoxicity against peritoneal macrophage cells (unknown origin) at 5 to 20 uM by MTT assay; assay type: cell-based
Calvarial osteoblast [12] = experiment: Upregulation of ALP mRNA expression in mouse calvarial osteoblast at 1 pM to 100 pM measured after 24 to 48 hrs by qPCR analysis; assay type: functional, cell-based
Mus musculus [13] = experiment: Anti-osteoporosis activity in ovariectomized BALB/c mouse assessed as reduction in trabecular spacing in femur bone at 1 to 5 mg/kg, po via gavage administered for 1 month by microCT imaging analysis; assay type: functional, organism-based
Mus musculus [14] = experiment: Anti-osteoporosis activity in ovariectomized BALB/c mouse assessed as increase in trabecular number in femur bone at 1 to 5 mg/kg, po via gavage administered for 1 month by microCT imaging analysis; assay type: functional, organism-based
Mus musculus [15] = experiment: Anti-osteoporosis activity in ovariectomized BALB/c mouse assessed as increase in trabecular thickness in femur bone at 1 to 5 mg/kg, po via gavage administered for 1 month by microCT imaging analysis; assay type: functional, organism-based
[16] = molecular target: Estrogen receptor beta (Mus musculus) (UniProt O08537); experiment: Induction of ESR2-mediated osteoblast differentiation in mouse calvarial osteoblast assessed as formation of mineralized nodule at 1 to 10 uM measured after 21 days by alizarin red staining based assay; assay type: cell-based
Calvarial osteoblast [17] = experiment: Upregulation of ESR1 protein level in mouse calvarial osteoblast at 1 to 100 pM measured after 48 hrs by Western blot analysis; assay type: functional, cell-based
Calvarial osteoblast [18] = experiment: Upregulation of ESR2 protein level in mouse calvarial osteoblast at 1 to 100 pM measured after 48 hrs by Western blot analysis; assay type: functional, cell-based
Mus musculus [19] = experiment: Anti-osteoporosis activity in ovariectomized BALB/c mouse at 5 mg/kg, po via gavage administered for 1 month by microCT imaging analysis; assay type: functional, organism-based
[20] = molecular target: Estrogen receptor beta (Mus musculus) (UniProt O08537); experiment: Induction of ESR2-mediated osteoblast differentiation in mouse calvarial osteoblast assessed as increase in ALP activity at 100 pM measured after 48 hrs by spectrophotometric analysis; assay type: cell-based
[21] = molecular target: Estrogen receptor beta (Mus musculus) (UniProt O08537); experiment: Induction of ESR2-mediated osteoblast differentiation in mouse calvarial osteoblast assessed as increase in ALP activity at 1 nM measured after 48 hrs by spectrophotometric analysis; assay type: cell-based

Compound: COc1ccc(/C(=C/c2ccccc2)CC(=O)NC(C)C)cc1
- inhibition of growth at 30 µg/mL (MCF7): 30 to 48%

Compound: COc1ccc(/C(C)=C(\CCCCCC(=O)NCCc2ccccn2)c2ccccc2)cc1
- inhibition of growth at 30 µg/mL (MCF7): 30 to 48%

Compound: COc1ccc(/C(C)=C(\CCCCCC(=O)NCc2ccccn2)c2ccccc2)cc1
- inhibition of growth at 30 µg/mL (MCF7): 30 to 48%

Compound: CCCCN(C)C(=O)CCC/C(=C(/C)c1ccc(OC)cc1)c1ccccc1
- Activity [1]: Active

Compound: O=C(c1ccc(OCCN2CCCCC2)cc1)c1c(-c2ccc(O)cc2)sc2cc(O)ccc12
- Activity (Mus musculus [2]): Active
- Activity (Mus musculus [3]): Active
- Activity (Mus musculus [4]): Active
- Activity (Mus musculus [5]): Active
- Activity (Mus musculus [6]): Active

Compound: CCCCN(C)C(=O)CCCCC/C(=C(/C)c1ccc(OC)cc1)c1ccccc1
- Activity (Calvarial osteoblast [7]): Active
- Activity (Calvarial osteoblast [8]): Active
- Activity (Mus musculus [9]): Active
- Activity (Mus musculus [10]): Active
- Activity [1]: Active
- Activity [11]: Non-Toxic
- Activity (Calvarial osteoblast [12]): Active
- Activity (Mus musculus [13]): Active
- Activity (Mus musculus [14]): Active
- Activity (Mus musculus [15]): Active
- Activity [16]: Active
- Activity (Calvarial osteoblast [17]): Active
- Activity (Calvarial osteoblast [18]): Active
- Activity (Mus musculus [19]): Active
- inhibition of growth at 30 µg/mL (MCF7): 32.1%

Compound: COc1ccc(/C(=C/c2ccccc2)CC(=O)N2CCCC2)cc1
- inhibition of growth at 30 µg/mL (MCF7): 30 to 48%

Compound: COc1ccc(/C(C)=C(\CCCC(=O)NCc2ccccn2)c2ccccc2)cc1
- inhibition of growth at 30 µg/mL (MCF7): 30 to 48%

Compound: COc1ccc(/C(C)=C(\CCCC(=O)NCCc2ccccn2)c2ccccc2)cc1
- Activity [20]: Active

Compound: COc1ccc(/C(C)=C(\CCCCCC(=O)N2CCCC2)c2ccccc2)cc1
- Activity [1]: Active
- inhibition of growth at 30 µg/mL (MCF7): 30 to 48%

Compound: COc1ccc(/C(=C/c2ccccc2)CC(=O)N(C(C)C)C(C)C)cc1
- Activity [21]: Active

Compound: COc1ccc(/C(=C/c2ccccc2)CC(=O)NCCc2ccccn2)cc1
- inhibition of growth at 30 µg/mL (MCF7): 30 to 48%

Compound: COc1ccc(/C(C)=C(\CCCC(=O)N2CCCC2)c2ccccc2)cc1
- inhibition of growth at 30 µg/mL (MCF7): 48.4%

Compound: CCCCCN(C)C(=O)C/C(=C\c1ccccc1)c1ccc(OC)cc1
- Activity [1]: Active
- inhibition of growth at 30 µg/mL (MCF7): 30 to 48%
